Experimental data published in patent publication US8575338B2, “Pyrimidine, pyridine and triazine derivatives as maxi-K channel openers” (Mitsubishi Tanabe Pharma Corporation, priority 2008, dated 2013).

Biological target: T1, human BKαβ1 channels (Homo sapiens, UniProt Q12791)
T1 construct: expressed in transfected cells; host or cells: CHO cells (G418 and hygromycin selection)
Test: BK current in CHO cells expressing human BKαβ1 (PatchXpress whole-cell patch clamp), EC100
Assay type: cell-based
Details: drug concentration causing 100% increase of BK current
Description: Methods for Testing Compounds on Human BKαβ1 Channels Expressed Cho Cells
CHO cells expressing human BKαβ1 were cultured in T75 or 6 well cell culture cluster. Medium: DMEM/F12+10% FBS+0.5 mg/mL G418/genetecin+0.1 mg/mL Hygromycin. Split cells every 3-4 days at 80-90% confluence. Use cells for experiments 60-72 hrs after re-passage and at ˜90% confluence.
Trypsin solution (0.05% Trypsin+0.1% EDTA), Ca^2+ free PBS and culture medium were warmed to 37° C. Inspect the T75 flask for cell confluence. Remove culture medium and add warm Ca^2+ free PBS to wash cells. Remove Ca^2+ free PBS and add warm Trypsin solution. Put the T75 flask back to 37° C. incubator for about 4.5 minutes. Stop Trypsin activity by adding culture medium. Spin the cells down. Suspend cells in 120-160 μL external solution for BK current recording and use the cells as soon as possible.
PatchXpress Sealchip 16 electrodes (AVIVA Biosciences) and PatchXpress 7000A (Axon Instruments, Inc) were used for BK current recording. Flat bottom 1.5 mL glass vial (HiPep Laboratories) were used for containing external solutions (±compounds). The holes in the sealchip (equivalent to patch electrode) had resistance about 1.5 MΩ. Cell membrane capacitance was compensated and access resistance was also compensated by 40%. Voltage-clamp protocol: Holding voltage=0 mV. Record BK current during 200-ms steps between +80 to +120 mV in 10 mV increments and 2 sec inter-pulse interval. On-line digital leak subtraction was performed by a P/−4 procedure. After whole-cell configuration was established, 2 minute was used to optimize access resistance. Then the chamber was washed with control bath solution for 1 minute to remove excessive cells. Control bath solution was added with robotic pipette and control BK current was recorded after 1 minute equilibrium time. For each drug concentration, 45 μL drug solution was added three times with “suction before adding” mode which left old solution. For each drug addition, 1 minute equilibrium time was given. BK current was measured at each drug concentrations (usually within 3.5 minutes after first drug addition). Calculate % change of BK current at the voltage step when the control BK current first exceeding 200 pA. If the control BK current was less than 200 pA at 120 mV, the cell was not used. % changes were calculated as 100*(Id−Ic)/Ic, where Id was the current amplitude in the presence of drug and Ic was the control current amplitude.
EC100 was defined as the drug concentration causing 100% increase of BK current calculated by the method described above. EC100 was determined by the data points just below and above 100%. % Increase of BK current was plotted against log [drug concentration]. A straight line connected two data points flanking 100%. From this straight line, the concentration corresponding to 100% increase of BK current was determined as EC100.
Compounds were dissolved in DMSO to make 10 mM stock solutions. Subsequent dilutions were made with external solution. The testing drug concentrations were 0.1, 0.3, 1, 3 and 10 μM depending on the potency of compounds. The highest DMSO concentration was 0.1%. External solution (in mM): 140 NaCl, 4 KCl, 1 MgCl2, 2 CaCl2, 10 Glucose, 10 HEPES; pH=7.4 with NaOH. Internal solution (in mM): 140 KCl, 5 EGTA, 1 MgCl2, 5 MgATP, 0.2 CaCl2, 5 HEPES; pH=7.2 with KOH.

T1 sequence (Q12791 whole entry): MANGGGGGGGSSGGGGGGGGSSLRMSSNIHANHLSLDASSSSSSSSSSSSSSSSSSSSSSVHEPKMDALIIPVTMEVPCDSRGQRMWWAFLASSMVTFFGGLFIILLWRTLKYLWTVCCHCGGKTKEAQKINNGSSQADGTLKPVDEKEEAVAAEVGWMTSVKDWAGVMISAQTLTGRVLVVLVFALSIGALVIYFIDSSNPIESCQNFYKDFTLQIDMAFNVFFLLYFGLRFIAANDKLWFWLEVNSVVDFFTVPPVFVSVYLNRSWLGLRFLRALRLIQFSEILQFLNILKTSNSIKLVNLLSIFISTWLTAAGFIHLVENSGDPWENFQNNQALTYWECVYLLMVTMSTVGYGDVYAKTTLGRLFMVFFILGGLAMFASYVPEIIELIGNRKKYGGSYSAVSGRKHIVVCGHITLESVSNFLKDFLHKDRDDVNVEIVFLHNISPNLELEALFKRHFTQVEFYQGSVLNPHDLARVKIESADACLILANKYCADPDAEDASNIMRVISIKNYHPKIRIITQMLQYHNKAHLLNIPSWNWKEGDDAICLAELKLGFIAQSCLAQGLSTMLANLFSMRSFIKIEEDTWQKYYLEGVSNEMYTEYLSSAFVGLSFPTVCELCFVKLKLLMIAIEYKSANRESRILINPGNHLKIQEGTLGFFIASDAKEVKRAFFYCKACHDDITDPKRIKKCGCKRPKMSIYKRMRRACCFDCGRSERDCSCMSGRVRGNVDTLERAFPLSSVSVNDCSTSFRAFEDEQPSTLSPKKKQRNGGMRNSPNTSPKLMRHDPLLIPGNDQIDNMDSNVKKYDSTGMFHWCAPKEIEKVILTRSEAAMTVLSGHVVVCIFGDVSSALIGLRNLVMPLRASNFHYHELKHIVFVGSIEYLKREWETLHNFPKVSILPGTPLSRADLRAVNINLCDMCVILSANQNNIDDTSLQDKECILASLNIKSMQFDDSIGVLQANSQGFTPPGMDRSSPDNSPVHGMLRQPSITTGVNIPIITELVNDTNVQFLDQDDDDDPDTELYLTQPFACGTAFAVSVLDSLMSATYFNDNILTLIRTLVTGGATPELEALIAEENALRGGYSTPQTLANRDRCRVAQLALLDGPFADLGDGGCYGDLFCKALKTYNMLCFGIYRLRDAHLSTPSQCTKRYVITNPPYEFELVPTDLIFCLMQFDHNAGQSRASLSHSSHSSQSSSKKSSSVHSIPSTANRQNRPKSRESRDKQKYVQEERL
T1 sequence (Q16558 whole entry partner): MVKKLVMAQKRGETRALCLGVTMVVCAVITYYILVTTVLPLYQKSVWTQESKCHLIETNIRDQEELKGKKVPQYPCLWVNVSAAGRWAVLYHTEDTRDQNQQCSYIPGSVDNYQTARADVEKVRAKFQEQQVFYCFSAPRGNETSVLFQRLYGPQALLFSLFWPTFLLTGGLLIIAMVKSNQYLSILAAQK

SMILES	EC100 [µM]
O=C([O-])C1(Oc2cc(-c3ccc4c(c3)OCCO4)nc(-c3ccc(Cl)c(F)c3)n2)CC1.[Na+] [Example 529]	0.12
CCOc1ncccc1-c1cc(OC2(C(=O)[O-])CC2)nc(-c2ccc(Cl)c(F)c2)n1.[Na+] [Example 533]	0.5
N#Cc1cccc(-c2cc(OC3(C(=O)[O-])CC3)nc(-c3ccc(Cl)c(F)c3)n2)c1.[Na+] [Example 548]	0.29
O=C([O-])C1(Oc2cc(-c3ccccc3O)nc(-c3ccc(Cl)c(F)c3)n2)CC1.[Na+] [Example 552]	0.2
O=C([O-])C1(Oc2cc(-c3nccs3)nc(-c3ccc(Cl)c(F)c3)n2)CC1.[Na+] [Example 559]	0.36
O=C([O-])C1(Oc2cc(-c3cncc(Cl)c3)nc(-c3ccc(Cl)c(F)c3)n2)CC1.[Na+] [Example 563]	0.01
COc1ncccc1-c1cc(OC2(C(=O)[O-])CCCC2)nc(-c2ccc(Cl)c(F)c2)n1.[Na+] [Example 566]	0.56
O=C([O-])C1(Oc2cc(-c3nccs3)nc(-c3ccc(Cl)c(F)c3)n2)CCCC1.[Na+] [Example 570]	2.15
COc1ccc(F)c(-c2cc(OC3(C(=O)[O-])CCOCC3)nc(-c3ccc(Cl)c(F)c3)n2)c1.[Na+] [Example 572]	1.07
COCCN(CC(=O)O)c1cc(-c2ccc(F)cc2)nc(-c2ccc(Cl)c(F)c2)n1 [Example 646]	1.23
O=C([O-])C1(Oc2cc(N3CCN(c4ncccn4)CC3)nc(-c3ccc(Cl)c(F)c3)n2)CC1.[Na+] [Example 664]	1.29
O=C(O)C1(Nc2cc(-c3ccc(F)cc3)nc(-c3ccc(Cl)c(F)c3)n2)CC1 [Example 706]	0.16
O=C(O)C1(Oc2cc(-c3ccc(C(F)(F)F)nc3)nc(-c3ccc(Cl)c(F)c3)n2)CC1 [Example 888]	0.48
COc1ccc(Cl)c(-c2cc(OC3(C(=O)O)CC3)nc(-c3ccc(F)cc3)n2)c1 [Example 900]	0.36
N#Cc1cc(Cl)ccc1-c1cc(OC2(C(=O)O)CC2)nc(-c2ccc(Cl)cc2)n1 [Example 918]	0.2
COCc1cc(Cl)ccc1-c1cc(OC2(C(=O)O)CC2)nc(-c2ccc(Cl)cc2)n1 [Example 921]	0.1
CCOCc1ccc(-c2cc(OC3(C(=O)O)CC3)nc(-c3ccc(Cl)cc3)n2)c(C)c1 [Example 1034]	0.17
Cc1cc(Cl)ccc1-c1nc(OC2(C(=O)[O-])CC2)nc(-c2ccc(Cl)cc2)n1.[Na+] [Example 1088]	0.14
Cc1cc(C(F)(F)F)ccc1-c1nc(OC2(C(=O)O)CC2)nc(-c2ccc(Cl)cc2)n1 [Example 1092]	0.02
Cc1cc(OC(F)(F)F)ccc1-c1nc(OC2(C(=O)[O-])CC2)nc(-c2ccc(Cl)cc2)n1.[Na+] [Example 1094]	0.03
O=C([O-])C1(Oc2cc(N3CCc4cc(F)ccc4C3)nc(-c3ccc(Cl)cc3)n2)CC1.[Na+] [Example 1096]	0.11

Next, values leading:

EC100 [µM]	SMILES
0.12	COc1cc(F)cc(-c2cc(OC3(C(=O)[O-])CC3)nc(-c3ccc(Cl)c(F)c3)n2)c1.[Na+] [Example 519]
0.32	COc1ccc(F)cc1-c1cc(OC2(C(=O)[O-])CC2)nc(-c2ccc(Cl)c(F)c2)n1.[Na+] [Example 520]
0.39	COc1cc(-c2cc(OC3(C(=O)[O-])CC3)nc(-c3ccc(Cl)c(F)c3)n2)ccc1F.[Na+] [Example 522]
0.36	COCc1cccc(-c2cc(OC3(C(=O)[O-])CC3)nc(-c3ccc(Cl)c(F)c3)n2)c1.[Na+] [Example 526]
0.33	N#Cc1ccc(-c2cc(OC3(C(=O)[O-])CC3)nc(-c3ccc(Cl)c(F)c3)n2)cc1.[Na+] [Example 549]
0.1	CCOc1cccc(-c2cc(OC3(C(=O)[O-])CC3)nc(-c3ccc(Cl)c(F)c3)n2)c1.[Na+] [Example 553]
0.3	O=C([O-])C1(Oc2cc(-c3cccc(C(F)(F)F)c3)nc(-c3ccc(Cl)c(F)c3)n2)CC1.[Na+] [Example 555]
0.03	O=C([O-])C1(Oc2cc(-c3cccc(C(F)(F)F)c3)nc(-c3ccc(Cl)c(F)c3)n2)CC1.[Na+] [Example 556]
0.04	O=C([O-])C1(Oc2cc(-c3ccc(F)cc3O)nc(-c3ccc(Cl)c(F)c3)n2)CC1.[Na+] [Example 558]
0.05	COc1cc(F)cc(-c2cc(OC3(C(=O)[O-])CCOCC3)nc(-c3ccc(Cl)c(F)c3)n2)c1.[Na+] [Example 573]
0.12	COc1cc(F)ccc1-c1cc(OC2(C(=O)[O-])CC2)nc(-c2cccc(F)c2)n1.[Na+] [Example 613]
0.12	CCOc1cc(F)ccc1-c1cc(OC2(C(=O)O)CC2)nc(-c2ccc(F)cc2)n1 [Example 709]
0.14	CC(C)Oc1cc(F)ccc1-c1cc(OC2(C(=O)O)CC2)nc(-c2ccc(F)cc2)n1 [Example 710]
0.55	CCc1ccc(F)cc1-c1cc(OC2(C(=O)O)CC2)nc(-c2ccc(F)cc2)n1 [Example 892]
0.62	CCOc1ccc(-c2cc(OC3(C(=O)O)CC3)nc(-c3ccc(F)cc3)n2)c(C)c1 [Example 897]
0.14	Cc1cc(C(F)(F)F)ccc1-c1cc(OC2(C(=O)O)CC2)nc(-c2ccc(F)cc2)n1 [Example 905]
0.15	Cc1ccc(C(F)(F)F)cc1-c1cc(OC2(C(=O)O)CC2)nc(-c2ccc(F)cc2)n1 [Example 906]
0.12	CCOc1cc(F)cc(-c2nc(-c3ccc(F)cc3)nc(OC3(C(=O)[O-])CC3)c2C)c1.[Na+] [Example 978]
0.1	COc1ccc(-c2nc(-c3ccc(F)cc3)nc(OC3(C(=O)[O-])CC3)c2C)cc1Cl.[Na+] [Example 982]
0.13	COc1cc(-c2nc(-c3ccc(F)cc3)nc(OC3(C(=O)[O-])CC3)c2C)ccc1Cl.[Na+] [Example 993]
0.58	COc1cc(-c2nc(-c3ccc(F)cc3)nc(OC3(C(=O)[O-])CC3)c2C)ccc1F.[Na+] [Example 996]
0.14	Cc1cc(-c2nc(-c3ccc(F)cc3)nc(OC3(C(=O)[O-])CC3)c2C)ccc1F.[Na+] [Example 999]
0.14	Cc1cc(F)cc(-c2nc(-c3ccc(F)cc3)nc(OC3(C(=O)[O-])CC3)c2C)c1.[Na+] [Example 1000]
0.1	Cc1c(OC2(C(=O)[O-])CC2)nc(-c2ccc(F)cc2)nc1-c1ccc(Cl)s1.[Na+] [Example 1007]
0.34	Cc1c(OC2(C(=O)O)CC2)nc(-c2ccc(Cl)cc2)nc1-c1ccc(F)cc1 [Example 1015]
0.5	COc1ccc(-c2nc(-c3ccc(Cl)cc3)nc(OC3(C(=O)O)CC3)c2C)cc1 [Example 1016]
0.36	Cc1cc(F)ccc1-c1cc(OC2(C(=O)O)CC2)nc(-c2ccc(F)cc2)c1 [Example 1087]
0.04	Cc1ccc(C(F)(F)F)cc1-c1nc(OC2(C(=O)[O-])CC2)nc(-c2ccc(Cl)cc2)n1.[Na+] [Example 1093]
0.3	O=C([O-])C1(Oc2cc(N3CCc4ccc(F)cc4C3)nc(-c3ccc(Cl)cc3)n2)CC1.[Na+] [Example 1095]
0.11	CN(Cc1cccc(F)c1)c1cc(OC2(C(=O)[O-])CC2)nc(-c2ccc(F)cc2)n1.[Na+] [Example 1098]
